Reference: ChEMBL document CHEMBL3885861, “Open TG-GATES”

Species: Rattus norvegicus
Experiment: Open TG-GATES - Regimen: Single
Type: toxicity, organism-based, Sprague-Dawley
Set-up: regimen Single, gender Male, age 6 weeks
Details: in vivo, iv, route intravenous injection; for TP / gamma-GTP / ALP / ALT / BUN / CRE / DBIL / GLC / IP / K / LDH / PL / RALB / TBIL / TC / TG / AST / Na: tissue Plasma; for KIDNEY_L / KIDNEY_R / KIDNEY_TOTAL: tissue Kidney; for LIVER: tissue Liver
[1] = 30 mg/kg, 24 h, dose level Middle
[2] = 100 mg/kg, 3 h, tissue Blood, dose level High
[3] = 100 mg/kg, 3 h, dose level High
[4] = 100 mg/kg, 6 h, dose level High
[5] = 100 mg/kg, 6 h, tissue Blood, dose level High
[6] = 100 mg/kg, 9 h, dose level High
[7] = 100 mg/kg, 9 h, tissue Blood, dose level High
[8] = 100 mg/kg, 24 h, dose level High
[9] = 100 mg/kg, 24 h, tissue Blood, dose level High

## CARBOPLATIN
[1]
  TP: 5.5 g/dL
  gamma-GTP: 1.2 IU/L
[2]
  APTT: 22.8 s
  Bas: 0%
  Eos: 0.6%
  Fbg: 275 mg/dL
  MCHC: 32.4%
  MCV: 64.2 fL
  Mono: 2.8%
  Neu: 17.2%
  PT: 15.7 s
  Plat: 123.5 x10_4/uL
  RBC: 630.8 x10_4/ul
  Ret: 6.4%
  WBC: 81.4 x10_2/uL
[3]
  KIDNEY_L: 0.9 g
  KIDNEY_R: 0.9 g
  KIDNEY_TOTAL: 1.9 g
  LIVER: 9.2 g
  ALP: 1630.8 IU/L
  ALT: 45 IU/L
  BUN: 12 mg/dL
  CRE: 0.2 mg/dL
  DBIL: 0 mg/dL
  GLC: 170.6 mg/dL
  IP: 9.1 mg/dL
  K: 4.2 meq/L
  LDH: 173.8 IU/L
  PL: 129 mg/dL
  RALB: 3 g/dL
  TBIL: 0.014 mg/dL
  TC: 69.8 mg/dL
  TG: 70.8 mg/dL
  TP: 5.3 g/dL
  gamma-GTP: 1.2 IU/L
[4]
  TERMINAL_BW: 200.2 g
  KIDNEY_L: 1 g
  KIDNEY_R: 1 g
  KIDNEY_TOTAL: 1.9 g
  LIVER: 8.2 g
  ALP: 1531.2 IU/L
  ALT: 40.4 IU/L
  AST: 84.4 IU/L
  BUN: 10.8 mg/dL
  CRE: 0.2 mg/dL
  DBIL: 0 mg/dL
  GLC: 176.6 mg/dL
  IP: 9.5 mg/dL
  K: 4.2 meq/L
  LDH: 177.8 IU/L
  Na: 140 meq/L
  PL: 109.6 mg/dL
  RALB: 2.9 g/dL
  TBIL: 0.02 mg/dL
  TC: 61.8 mg/dL
  TG: 37.4 mg/dL
  TP: 5.3 g/dL
  gamma-GTP: 1.2 IU/L
[5]
  APTT: 24.4 s
  Bas: 0%
  Eos: 0.8%
  Fbg: 286.8 mg/dL
  Ht: 41.1%
  Lym: 76%
  MCH: 20 pg
  MCHC: 32.2%
  MCV: 62.2 fL
  Mono: 6.4%
  Plat: 125.8 x10_4/uL
  RBC: 663.8 x10_4/ul
  Ret: 5.2%
  WBC: 91 x10_2/uL
[6]
  TERMINAL_BW: 204.6 g
  KIDNEY_L: 0.9 g
  KIDNEY_R: 1 g
  KIDNEY_TOTAL: 1.9 g
  LIVER: 8.4 g
  ALP: 1146.6 IU/L
  ALT: 34.4 IU/L
  AST: 72.8 IU/L
  CRE: 0.2 mg/dL
  DBIL: 0 mg/dL
  GLC: 174.8 mg/dL
  IP: 9.9 mg/dL
  K: 4.5 meq/L
  LDH: 172.4 IU/L
  Na: 139.4 meq/L
  RALB: 2.9 g/dL
  TBIL: 0.022 mg/dL
  TC: 69.2 mg/dL
  TG: 54.4 mg/dL
  TP: 5.2 g/dL
  gamma-GTP: 1.6 IU/L
[7]
  APTT: 24.9 s
  Bas: 0%
  Eos: 0.8%
  Fbg: 299.4 mg/dL
  Ht: 40.5%
  Lym: 73.8%
  MCHC: 32.4%
  MCV: 62.8 fL
  Mono: 3.4%
  Neu: 21.2%
  PT: 15.9 s
  Plat: 136.6 x10_4/uL
  RBC: 645.2 x10_4/ul
  Ret: 6.1%
  WBC: 69 x10_2/uL
[8]
  TERMINAL_BW: 203.7 g
  KIDNEY_L: 0.9 g
  KIDNEY_R: 1 g
  KIDNEY_TOTAL: 1.9 g
  LIVER: 8.8 g
  ALP: 1486.6 IU/L
  ALT: 41.2 IU/L
  AST: 76.8 IU/L
  CRE: 0.2 mg/dL
  DBIL: 0.002 mg/dL
  GLC: 179.2 mg/dL
  IP: 8.4 mg/dL
  K: 4.3 meq/L
  LDH: 176.8 IU/L
  PL: 135.6 mg/dL
  RALB: 3.1 g/dL
  TBIL: 0.022 mg/dL
  TC: 78.6 mg/dL
  TG: 51.2 mg/dL
  TP: 5.6 g/dL
  gamma-GTP: 1.2 IU/L
[9]
  APTT: 23.6 s
  Bas: 0%
  Eos: 0.2%
  Fbg: 306.2 mg/dL
  Hb: 12.9 g/dL
  Ht: 40.2%
  Lym: 82.6%
  MCHC: 32.2%
  Mono: 4%
  Neu: 12%
  PT: 16.2 s
  Plat: 123.1 x10_4/uL
  RBC: 641.4 x10_4/ul
  Ret: 2.7%
  WBC: 69.6 x10_2/uL
